One test has as its system dye-loaded E. coli cells. Description: Viability of DiSC3(5) dye-loaded cells by plating. The format is cell-based, Escherichia coli. The note with it: dye-loaded cells 10^6, HEPES-glucose buffer, two different days. The method, then:
The membrane depolarization of E. coli cells was determined using a potentiometric fluorescent probe DiSC3(5), as described elsewhere. Briefly, mid-log phase E. coli cells were diluted to 10^6 CFU/mL in the same HEPES-glucose buffer and were incubated with DiSC3(5) and EDTA at 0.4 µM and 0.2 mM concentrations, respectively, for 1 h in the dark at 37 °C, till the maximum uptake of the probe occurred. Increasing concentrations of the studied peptides from 1 µM to 10 µM were then added to these dye-loaded cells in a quartz cuvette, and the fluorescence intensity was measured on spectrofluorimeter (Shimadzu RF-5301 PC) set as excitation at 622 nm and emission at 670 nm. The increase in fluorescence intensity accounted for the dissipation of membrane potential caused due to peptide treatment. Cells treated with 10 µM melittin were used as a positive control. Simultaneously, the dye-loaded cells were plated onto LB agar to estimate bacterial cell death.
Figure S1: Survival of dye-loaded cells (10^6) treated with various concentrations of peptides that correspond to the inner membrane depolarization. The dye-loaded E. coli cells suspended in HEPES-glucose buffer ([…]) were incubated with different concentration of α-MSH and its analogues for 2 minutes and further diluted in the same buffer and plated on LB agar plates. The plates were further incubated at 37 °C for 16 h. Next day the colonies were counted.^1 The experiment was performed on two different days and the representative values (mean ± SE) are shown in graph. (⁎, P < 0.05; ⁎⁎, P < 0.01, compared to that of control at the same concentration).

The subject of a further test is E. coli ATCC 25922. Description: Killing assay (killing kinetics), logarithmic phase cells. The note with it: logarithmic phase, 10^5 CFU/mL; for log reduction in cell viability: HEPES-glucose buffer pH 7.4, 37 °C, average ± SE, three independent experiments, SEM; for killing activity (decrease in cell viability), in words: low concentrations 1 µM and 2 µM, up to 2 h. The format is cell-based, Escherichia coli. As to the method:
(§1) For this study, a well-characterized strain of E. coli (ATCC 25922) was used. The strain was stored at − 80 °C in 15% (v/v) glycerol until sub-cultured onto LB agar plates for use.
(§2) The antibacterial activity of α-MSH and its cationic analogues was determined against both logarithmic (2–3 h) and stationary (16–18 h) phase of E. coli cells in LB medium. The bacterial suspension was pelleted, washed, and diluted in HEPES-glucose buffer (5 mM HEPES, 20 mM glucose, pH 7.4) to adjust the cell density by measuring the OD = 0.5 (10^8 CFU/mL) at 600 nm using a spectrophotometer. This suspension was used to obtain the desired inoculum sizes (10^5 CFU/mL, 10^6 CFU/mL, and 10^7 CFU/mL). The inoculums were exposed to various concentrations of peptides (1 µM, 2 µM, 5 µM, and 10 µM) and incubated at 37 °C. Untreated E. coli cells were also included as a control. At selected time points (0 min, 15 min, 30 min, 60 min, and 120 min), aliquots were taken out, and survival of E. coli cells was determined by quantitative plating on LB agar after appropriate dilution in the same buffer. The plates were incubated overnight at 37 °C, followed by colony counting. Each experiment was performed at least three times on three independent days.

In another test the test system is E. coli outer membrane. Put plainly: Outer membrane permeabilization assay (NPN uptake). The format is cell-based, Escherichia coli. The note with it: relative to 10 µM polymyxin B = 100%; for %NPN uptake: 10^8 CFU/mL mid-log cells, 10 μM NPN. The method, then:
The outer membrane permeabilization assay was done as described in the literature with slight modifications. Briefly, bacterial cells were grown to mid-log phase in LB medium, washed and diluted to 10^8 CFU/mL in HEPES-glucose buffer. Next, this bacterial suspension was treated with 10 μM NPN probe and subsequently challenged with increasing concentrations of peptides (1 µM to 20 µM). Changes in the fluorescence intensity of NPN were measured with the help of Shimadzu RF-5301 PC spectrofluorimeter (excitation at 350 nm and emission at 420 nm). Increased intensity of emission resulted from the damage to the bacterial outer membrane and was measured until no further increase in fluorescence was observed. NPN uptake was calculated using the following formula: %NPNuptake=Fobs-F0/F100-F0×100 where Fobs is the NPN fluorescence intensity after the peptide treatment, F0 is the NPN fluorescence with untreated E. coli cells, and F100 is the NPN fluorescence in the presence of 10 µM polymyxin B (a positive control).

The subject of test [1] is stationary phase E. coli cells. Description: Killing assay, stationary phase cells. The format is cell-based, Escherichia coli. Conditions: 10^5 CFU/mL, HEPES-glucose buffer, 37 °C, peptide 10 µM, 1 h, mean ± SE, three independent days, SEM. As to the method:
as §1, §2

Another test deals with LPS from E. coli O55:B5. Description: LPS binding assay (BODIPY-TR-cadaverine displacement). Further details: species or system Escherichia coli. The note with it: BC displacement, LPS 50 μg/mL, 5 µM BC, 50 mM Tris buffer pH 7.4, peptide 0.25 to 20 µM, Hill equation fit, mean Kd ± SD of two independent experiments, read-out: Kd (dissociation constant) with LPS. The method, then:
The binding of α-MSH and its analogues to LPS was checked using BODIPY-TR-cadaverine (BC) as a fluorescent probe[24],[42]. BC fluorescence decreases when bound to cell-free LPS and increases when it is freely accessible in solution. LPS (50 μg/mL) from E. coli O55:B5 (Sigma-Aldrich, India) was incubated with 5 µM of BC in 50 mM Tris buffer (pH 7.4) for 4 h. Next, 800 µL of this LPS-BC mixture was added to varying concentrations (0.25 µM to 20 µM) of the peptides in a quartz cuvette, and the BC fluorescence was measured on a spectrofluorimeter (Shimadzu RF-5301 PC) with excitation at 580 nm and emission at 620 nm. Each experiment was done in duplicate independently. Increase in fluorescence intensities with increase in concentration of peptides were plotted and the dissociation constant (Kd) was calculated from each individual data set and is presented as mean value ± SD using Igor Pro 6.36 (Y = Bmax × Xˆh/(Kdˆh + Xˆh); where X: concentration of peptide (µM), Y: fluorescence intensity (a.u.), h: Hill slope)[43]. The molecular mass of LPS was taken as 20,000 Da as described elsewhere, and its concentration was calculated accordingly.
Table S1: The dissociation constant (Kd) of α-MSH and its analogues with LPS. […]

The subject of a further test is E. coli cells. Description: Membrane permeabilization assay (PI uptake, flow cytometry). The format is cell-based, Escherichia coli. Conditions: span over rising peptide concentrations; 10^6 CFU/mL mid-log cells, PI 1.3 µg/mL, 37 °C, 1 h, flow cytometry; three independent days. As to the method:
Membrane permeabilization of E. coli cells was determined via propidium iodide (PI) uptake assay through flow cytometry as described previously with slight modifications. Briefly, mid-log phase E. coli cells were adjusted to 10^6 CFU/mL in the HEPES-glucose buffer. Next, cells were incubated with propidium iodide (PI) at 1.3 µg/mL concentration for 30 min in the dark. After incubation, PI-loaded cells were treated with a range of peptide concentrations, i.e., 1 µM, 2 µM, 5 µM, and 10 µM, at 37 °C for 1 h, and PI fluorescence intensity was measured through Becton Dickinson (BD) FACS verse (San Jose, CA) flow cytometer using excitation at 544 nm and emission at 620 nm.
Figure S2: Histograms of E. coli cells treated with 2 µM concentration of α-MSH and its analogues and 1 µM concentration of polymyxin B for 1 h. Towards monitoring the membrane permeabilizations of E. coli cells, propidium iodide (PI) uptake assay through flow cytometry was performed using the previously standardized method with mild modifications ^2. Briefly, mid-log phase grown E. coli cells (10^6 CFU/mL) suspended in the HEPES-glucose buffer were incubated with propidium iodide (PI) at a concentration of 1.3 µg/mL for 30 min in dark. After incubation, PI loaded cells were treated with a range of peptide concentrations; 1 µM, 2 µM, 5 µM and 10 µM at 37 °C for 1 h, and PI fluorescence intensity was measured through Becton Dickinson (BD) FACS verse (San Jose, CA) flow cytometer using excitation at 544 nm and emission at 620 nm.
In general terms: In flow cytometry, cells or beads pass a laser one at a time.

The mark [2] stands for this setting: peptide 10 µM, 2 min of exposure.

The Kd is the equilibrium constant for the complex coming apart.

Take `CSCC[C@H](NC(=O)[C@H](CCCCN)NC(=O)[C@H](Cc1ccc(O)cc1)NC(=O)[C@H](CCCCN)NC(C)=O)C(=O)N[C@@H](CCC(=O)O)C(=O)N[C@@H](Cc1c[nH]cn1)C(=O)N[C@@H](Cc1ccccc1)C(=O)N[C@@H](CCCNC(=N)N)C(=O)N[C@@H](Cc1c[nH]c2ccccc12)C(=O)NCC(=O)N[C@@H](CCCCN)C(=O)N1CCC[C@H]1C(=O)N[C@H](C(N)=O)C(C)C` [KK-MSH]: the “log reduction in cell viability of dye-loaded cells” value came out at 0.5 log in the test on dye-loaded E. coli cells (peptide 5 µM, 2 min exposure) and 1.2 log in the test on dye-loaded E. coli cells (setting [2]). Also, the “log reduction in cell viability” value is listed as 1.7 ± 0.4 log with E. coli ATCC 25922 (peptide 5 µM, 2 h); 2.6 ± 0.5 log in the test on E. coli ATCC 25922 (peptide 10 µM, 2 h); 1.8 ± 0.05 log in test [1]. The “killing activity (decrease in cell viability), in words” value in the test on E. coli ATCC 25922 is on record as “very slight decrease in the cell viability”. In addition, the “%NPN uptake” value is listed as 6.8% with E. coli outer membrane (peptide 1 μM, HEPES-glucose buffer, average of three independent days) and 37.7% in the test on E. coli outer membrane (peptide 20 μM (highest concentration)).
polymyxin B [reference compound]: the Kd in the test on LPS from E. coli O55:B5 turned out to be 2.4 ± 0.84 µM.
For `CSCC[C@H](NC(=O)[C@H](CO)NC(=O)[C@H](Cc1ccc(O)cc1)NC(=O)[C@H](CCCCN)NC(C)=O)C(=O)N[C@@H](CCC(=O)O)C(=O)N[C@@H](Cc1c[nH]cn1)C(=O)N[C@@H](Cc1ccccc1)C(=O)N[C@@H](CCCNC(=N)N)C(=O)N[C@@H](Cc1c[nH]c2ccccc12)C(=O)NCC(=O)N[C@@H](CCCCN)C(=O)N1CCC[C@H]1C(=O)N[C@H](C(N)=O)C(C)C` [K-MSH], the “log reduction in cell viability of dye-loaded cells” value in the test with dye-loaded E. coli cells (peptide 5 µM, 2 min exposure) came to 0.7 log; in the test with dye-loaded E. coli cells (setting [2]), 0.6 log. Further, the “log reduction in cell viability” value with E. coli ATCC 25922 (peptide 10 µM, 1 h) is 1.9 ± 0.3 log; in test [1], 1.7 ± 0.3 log. In the test with E. coli ATCC 25922, the “killing activity (decrease in cell viability), in words” value is recorded as “very slight decrease in the cell viability”. In the test with E. coli ATCC 25922 (peptide 5 µM), the “change of killing activity at 5 µM against lower concentrations, in words” value was “marginal increase in activity”. Also, in the test on E. coli cells, the PI positive cells was 21.8–26.5%. Further, the “maximum NPN uptake” value in the test on E. coli outer membrane (over peptide concentrations from 1 to 20 μM) is given as 16.2%.

The record behind these values is PMC8821551, “Binding of cationic analogues of α-MSH to lipopolysaccharide and disruption of the cytoplasmic membranes caused bactericidal action against Escherichia coli” (Scientific Reports, 2022).
